In one assay the test system is MIA PaCa-2 cells. In words: Growth inhibition activity on KRAS-G12C mutant cell line (MIA PaCa-2), CellTiter-Glo 3D. Type of assay: cell-based, human. Particulars: MIA PaCa-2, 3-day culture with compound. The gist of the method:
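Luminescence readout (CellTiter-Glo 3D) after 3 days of compound treatment at 37 °C, 5% CO2, 0.2% final DMSO, gave % growth inhibition versus no-compound wells, from which IC50 (nM) was derived; cells had been plated in 10% FBS RPMI1640 one day before dosing.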

Assay [1] addresses T1, interaction between recombinant K-Ras4B G12C mutant protein and cRAF RAS-binding domain (cRAF-RBD) (Homo sapiens, UniProt P01116, G12C).
T1 construct: made in house; host or cells: E. coli
Kind of assay: Inhibitory activity on interaction between KRAS G12C and cRAF (Alpha technology). Type of assay: biochemical. The following applies: GMPPNP-bound KRAS G12C incubated with compound at 25° C. for 1 hour, then cRAF-RBD; Alpha signal. The gist of the method: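 Alpha readout of cRAF-RBD (aa 50-132) binding to KRAS G12C (aa 1-169) after 1.5 h RT, following 1 h, 25° C compound preincubation with GMPPNP-bound protein (pH 7.5 Tris, 1 mM MgCl2, TCEP, Tween 20). IC50 fitted from titrations, with GDP-bound KRAS as 100% and DMSO as 0% inhibition.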

Assay [2] addresses Gppcp-bound recombinant K-Ras4B G12C mutant protein (amino acids 1-169, C51S/C80L/C118S) (Homo sapiens, UniProt P01116, C118S/C51S/C80L/G12C). In words: KRASG12C binding assay (LC-MS, compound binding rate). Particulars: test compound final concentration 0.5 μM, 25° C., 1 hour. The essentials: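 Covalent adduct formation measured by deconvoluted intact-mass LC-MS after 1 h at 25 °C with compound at 0.5 μM final and 50 nM Gppcp-loaded KRAS G12C (residues 1-169, C51S/C80L/C118S). Buffer: TBS, 0.1 mM TCEP, 0.25 mM MgCl2, 50 μM Gppcp. Binding % = one-molecule adduct/(unbound + all adducts), binned A ≥80, B 60–80, C 40–60, D 20–40, E <20.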

As a reminder, the IC50 is the midpoint of a concentration-inhibition curve. Take `CO[C@H]1CC[C@H](NC/C=C/C(=O)Nc2c(F)cc(C(=O)c3ccc4c(-c5c(C)cc6c(ncn6C)c5C)cccn34)cc2F)CC1` (single isomer, unassigned) [Example 34-2, (E)-N-(2,6-difluoro-4-(8-(1,4,6-trimethyl-1H-benzo[d]imidazol-5-yl)indolizine-3-carbonyl)phenyl)-4-(((1r,4r)-4-methoxycyclohexyl)amino)but-2-enamide]: the IC50 came out at 310 nM in the assay with MIA PaCa-2 cells and 200 nM in assay [1]. In addition, in assay [2], the binding rate entry is “B (a binding rate of 60% or more and less than 80% is rated “B”)”.

For the compound `Cc1cc2c(ncn2C)c(Cl)c1-c1cccn2c(C(=O)c3cc(F)c(NC(=O)/C=C/CNC(C)(C)C)c(F)c3)ccc12` (single isomer, unassigned) [Example 13-1, (E)-4-(tert-butylamino)-N-(4-(8-(4-chloro-1,6-dimethyl-1H-benzo[d]imidazol-5-yl)indolizine-3-carbonyl)-2,6-difluorophenyl)but-2-enamide], the IC50 in the assay on MIA PaCa-2 cells is 32 nM; in assay [1] it was 46 nM. Moreover, the binding rate entry in assay [2] is “A (A binding rate of 80% or more is rated “A”)”.

With `COc1cc2c(ncn2C)c(Cl)c1-c1cccn2c(C(=O)c3cc(F)c(NC(=O)/C=C/CNC(C)(C)C)c(F)c3)ccc12` (single isomer, unassigned) [Example 14-1, (E)-4-(tert-butylamino)-N-(4-(8-(4-chloro-6-methoxy-1-methyl-1H-benzo[d]imidazol-5-yl)indolizine-3-carbonyl)-2,6-difluorophenyl)but-2-enamide], the IC50 in the assay with MIA PaCa-2 cells (Homo sapiens, MIA PaCa-2, 72 h) stood at 28 nM; in assay [1], 57 nM. The binding rate result in assay [2] is “A (A binding rate of 80% or more is rated “A”)”.

In the case of `Cc1cc2c(ncn2C)c(Cl)c1-c1cccn2c(C(=O)c3cc(F)c(NC(=O)/C=C/CNC4CCOCC4)c(F)c3)ccc12` (single isomer, unassigned) [Example 27-2, (E)-N-(4-(8-(4-chloro-1,6-dimethyl-1H-benzo[d]imidazol-5-yl)indolizine-3-carbonyl)-2,6-difluorophenyl)-4-((tetrahydro-2H-pyran-4-yl)amino)but-2-enamide], the IC50 in the assay on MIA PaCa-2 cells was 530 nM; in assay [1] it was 120 nM. For the same compound, in assay [2], the binding rate result was “A (A binding rate of 80% or more is rated “A”)”.

As to `Cn1cnc2c(Cl)c(-c3cccn4c(C(=O)c5cc(F)c(NC(=O)/C=C/CNC(C)(C)C)c(F)c5)ccc34)c(Cl)cc21` (single isomer, unassigned) [Example 20-1, (E)-4-(tert-butylamino)-N-(4-(8-(4,6-dichloro-1-methyl-1H-benzo[d]imidazol-5-yl)indolizine-3-carbonyl)-2,6-difluorophenyl)but-2-enamide], the half-maximal inhibitory concentration (IC50) (with MIA PaCa-2 cells; in assay [1]) was 200 nM throughout. Further, the binding rate result in assay [2] is reported as “A (A binding rate of 80% or more is rated “A”)”.

`COc1cc2c(cc1-c1cccn3c(C(=O)c4cc(F)c(NC(=O)/C=C/CN[C@H]5CC[C@H](OC)CC5)c(F)c4)ccc13)ncn2C` [Example 1, (E)-N-(2,6-difluoro-4-(8-(6-methoxy-1-methyl-1H-benzo[d]imidazol-5-yl)indolizine-3-carbonyl)phenyl)-4-(((1r,4r)-4-methoxycyclohexyl)amino)but-2-enamide]: the 50% inhibitory concentration (IC50) was 91 nM in the assay on MIA PaCa-2 cells (Homo sapiens, MIA PaCa-2, 72 h) and 58 nM in assay [1]. For the same compound, the binding rate result in assay [2] is given as “A (A binding rate of 80% or more is rated “A”)”.

Consider `Cc1nc2cc(-c3cccn4c(C(=O)c5cc(F)c(NC(=O)/C=C/CN[C@@H]6CCC[C@@H](F)C6)c(F)c5)ccc34)c(C(F)(F)F)cc2n1C` (racemic) [Example 90, (E)-N-(4-(8-(1,2-dimethyl-6-(trifluoromethyl)-1H-benzo[d]imidazol-5-yl)indolizine-3-carbonyl-2,6-difluorophenyl)-4-(((1R,3R)-3-fluorocyclohexyl)amino)but-2-enamide and (E)-N-(4-(8-(1,2-dimethyl-6-(trifluoromethyl)-1H-benzo[d]imidazol-5-yl)indolizine-3-carbonyl)-2,6-difluorophenyl)-4-(((1S,3S)-3-fluorocyclohexyl)amino)but-2-enamide], for which the IC50 in the assay on MIA PaCa-2 cells (Homo sapiens, MIA PaCa-2, 72 h) was 200 nM; in assay [1], 97 nM. The binding rate entry in assay [2] is “A (A binding rate of 80% or more is rated “A”)”.

For `CCCc1cc(C(=O)c2cc(F)c(NC(=O)/C=C/CN[C@H]3CC[C@H](OC)CC3)c(F)c2)n2cccc(-c3c(C)cc4c(nc(C)n4C)c3Cl)c12` [Example 97, (E)-N-(4-(8-(4-chloro-1,2,6-trimethyl-1H-benzo[d]imidazol-5-yl)-1-propylindolizine-3-carbonyl)-2,6-difluorophenyl)-4-(((1r,4r)-4-methoxycyclohexyl)amino)but-2-enamide], the half-inhibitory concentration (IC50) with MIA PaCa-2 cells (Homo sapiens, MIA PaCa-2, 72 h) worked out at 320 nM; in assay [1], 44 nM. Moreover, the binding rate entry in assay [2] is on record as “A (A binding rate of 80% or more is rated “A”)”.

Consider `CO[C@H]1CC[C@H](NC/C=C/C(=O)Nc2c(F)cc(C(=O)c3ccc4c(-c5c(C)cc6c(nc(COC(=O)/C=C/CN[C@H]7CC[C@H](OC)CC7)n6C)c5Cl)cccn34)cc2F)CC1` [Example 59, (4-chloro-5-(3-(3,5-difluoro-4-((E)-4-(((1r,4r)-4-methoxycyclohexyl)amino)but-2-enamido)benzoyl)indolizin-8-yl)-1,6-dimethyl-1H-benzo[d]imidazol-2-yl)methyl (E)-4-(((1r,4r)-4-methoxycyclohexyl)amino)but-2-enoate], for which the IC50 came to 230 nM in the assay on MIA PaCa-2 cells (Homo sapiens, MIA PaCa-2, 72 h) and 34 nM in assay [1]. The binding rate result in assay [2] is “A (A binding rate of 80% or more is rated “A”)”.

For the compound `COc1cc2c(nc(C)n2C)c(Cl)c1-c1cccn2c(C(=O)c3cc(F)c(NC(=O)/C=C/CNC(C)(C)C)c(F)c3)ccc12` (single isomer, unassigned) [Example 36-1, (E)-4-(tert-butylamino)-N-(4-(8-(4-chloro-6-methoxy-1,2-dimethyl-1H-benzo[d]imidazol-5-yl)indolizine-3-carbonyl)-2,6-difluorophenyl)but-2-enamide], the results for the IC50 (in the assay on MIA PaCa-2 cells; in assay [1]) were 24 nM and 40 nM, respectively. For the same compound, the binding rate result in assay [2] is “B (a binding rate of 60% or more and less than 80% is rated “B”)”.

On to `C=Cc1cc(C(=O)c2cc(F)c(NC(=O)/C=C/CN[C@H]3CC[C@H](OC)CC3)c(F)c2)n2cccc(-c3c(C)cc4c(nc(C)n4C)c3Cl)c12` [Example 88, (E)-N-(4-(8(4-chloro-1,2,6-trimethyl-1H-benzo[d]imidazol-5-yl)-1-vinylindolizine-3-carbonyl)-2,6-difluorophenyl)-4-(((1r,4r)-4-methoxycyclohexyl)amino)but-2-enamide], for which the IC50 in the assay on MIA PaCa-2 cells (Homo sapiens, MIA PaCa-2, 72 h) stood at 130 nM; in assay [1], 26 nM. Besides, the binding rate result in assay [2] was “A (A binding rate of 80% or more is rated “A”)”.

Consider `COc1cc2c(c(F)c1-c1cccn3c(C(=O)c4cc(F)c(NC(=O)/C=C/CNC5(C)CC5)c(F)c4)ccc13)c(=O)ncn2C` [Example 114], for which the IC50 in the assay on MIA PaCa-2 cells (Homo sapiens, MIA PaCa-2, 72 h) was determined as 1070 nM; in assay [1] it was 18.9 nM. Moreover, the binding rate entry in assay [2] is “A (A binding rate of 80% or more is rated “A”)”.

These data come from US20240246968A1, “SMALL MOLECULE INHIBITORS OF KRAS G12C MUTANT” (Merck Sharp & Dohme LLC, priority 2021, published 2024).
